What was measured:
MAGL = target: T1, MAGL (Mus musculus, UniProt O35678); test: In vitro competitive activity-based protein profiling, mouse MAGL; format: biochemical; conditions: for inhibition at 1 µM: read-out: MAGL % inh. 1 μM (mouse)
T1 construct: mouse brain membrane fraction or cell lysates for mouse assays; from tissue
T1 sequence (O35678 1-303): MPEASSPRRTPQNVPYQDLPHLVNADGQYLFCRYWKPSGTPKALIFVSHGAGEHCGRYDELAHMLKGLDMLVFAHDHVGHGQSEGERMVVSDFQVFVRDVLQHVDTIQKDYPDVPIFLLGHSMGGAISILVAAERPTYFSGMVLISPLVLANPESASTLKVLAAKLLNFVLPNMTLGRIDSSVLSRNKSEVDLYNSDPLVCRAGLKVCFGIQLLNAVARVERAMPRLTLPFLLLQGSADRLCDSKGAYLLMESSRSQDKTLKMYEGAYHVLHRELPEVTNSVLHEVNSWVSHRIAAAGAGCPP
Procedure: (§1) In Vitro Competitive Activity-Based Protein Profiling.
(§2) Proteomes (mouse brain membrane fraction or cell lysates for mouse assays; human prefrontal cortex or cell membrane fractions for human assays) (50 μL, 1.0 mg/mL total protein concentration) were preincubated with varying concentrations of inhibitors at 37° C. After 30 min, FP-Rh or HT-01 (1.0 μL, 50 μM in DMSO) was added and the mixture was incubated for another 30 min at 37° C. Reactions were quenched with SDS loading buffer (15 μL—4×) and run on SDS-PAGE. Following gel imaging, serine hydrolase activity was determined by measuring fluorescent intensity of gel bands corresponding to MAGL and FAAH using ImageJ 1.43u software.

FAAH = target: T2, FAAH (Mus musculus, UniProt O08914); test: In vitro competitive activity-based protein profiling, mouse FAAH; format: biochemical; conditions: for inhibition at 1 µM: read-out: FAAH % inh. 1 μM (mouse)
T2 construct: mouse brain membrane fraction or cell lysates for mouse assays; from tissue
T2 sequence (O08914 1-579): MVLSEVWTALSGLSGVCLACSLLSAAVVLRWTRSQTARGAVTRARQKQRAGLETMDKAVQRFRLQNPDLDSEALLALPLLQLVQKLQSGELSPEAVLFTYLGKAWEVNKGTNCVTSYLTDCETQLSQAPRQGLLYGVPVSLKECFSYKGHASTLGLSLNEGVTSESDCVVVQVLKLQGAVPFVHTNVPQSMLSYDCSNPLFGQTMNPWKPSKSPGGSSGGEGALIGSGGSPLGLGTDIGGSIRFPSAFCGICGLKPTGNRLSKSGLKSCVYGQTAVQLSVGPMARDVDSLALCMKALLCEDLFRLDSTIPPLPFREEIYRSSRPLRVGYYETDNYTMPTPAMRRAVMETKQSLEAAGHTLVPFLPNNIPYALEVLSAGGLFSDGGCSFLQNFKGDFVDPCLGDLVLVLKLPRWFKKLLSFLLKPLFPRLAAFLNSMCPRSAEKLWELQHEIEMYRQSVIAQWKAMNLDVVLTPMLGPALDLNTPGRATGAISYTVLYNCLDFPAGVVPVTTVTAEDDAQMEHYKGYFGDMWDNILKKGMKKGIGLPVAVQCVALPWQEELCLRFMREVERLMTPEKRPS
Procedure: as §1, §2

Row | SMILES | IC50 (MAGL) [µM] | inhibition at 1 µM (MAGL) [%] | IC50 (FAAH) [µM] | inhibition at 1 µM (FAAH) [%]
1 | O=C(c1cnn(C(=O)N2CC3CN(Cc4ccccc4Cl)CC3C2)c1)N1CCCCC1 (centres unmarked) [Example 1, (5-(2-chlorobenzyl)hexahydropyrrolo[3,4-c]pyrrol-2(1H)-yl)(4-(piperidine-1-carbonyl)-1H-pyrazol-1-yl)methanone] | 1 to 10 | 25 to 50 | ≤ 0.1 | ≥ 75
2 | NC(=O)c1cnn(C(=O)N2CC3CN(Cc4ccc(N5CCOCC5)cc4C(F)(F)F)CC3C2)c1 (centres unmarked) [Example 2, 1-(5-(4-morpholino-2-(trifluoromethyl)benzyl)octahydropyrrolo[3,4-c]pyrrole-2-carbonyl)-1H-pyrazole-4-carboxamide] | ≤ 0.1 | ≥ 75 | ≤ 0.1 | ≥ 75
3 | O=C(c1cnn(C(=O)N2CC3CN(Cc4cc(Cl)ccc4Cl)CC3C2)c1)N1CCOCC1 (centres unmarked) [Example 5, (5-(2,5-dichlorobenzyl)hexahydropyrrolo[3,4-c]pyrrol-2(1H)-yl)(4-(morpholine-4-carbonyl)-1H-pyrazol-1-yl)methanone] |  | ≥ 75 |  | ≥ 75
4 | O=C(c1cnn(C(=O)N2CC3CN(Cc4cc(Cl)ccc4Cl)CC3C2)c1)N1CCN(C2CC2)CC1 (centres unmarked) [Example 6, (4-cyclopropylpiperazin-1-yl)(1-(5-(2,5-dichlorobenzyl)octahydropyrrolo[3,4-c]pyrrole-2-carbonyl)-1H-pyrazol-4-yl)methanone] |  | ≥ 75 |  | 0 to 25
5 | O=C(c1cnn(C(=O)N2CC3CN(Cc4cccc(C(F)(F)F)c4)CC3C2)c1)N1CCOCC1 (centres unmarked) [Example 7, (4-(morpholine-4-carbonyl)-1H-pyrazol-1-yl)(5-(3-(trifluoromethyl)benzyl)hexahydropyrrolo[3,4-c]pyrrol-2(1H)-yl)methanone] |  | ≥ 75 |  | ≥ 75
6 | O=C(c1cnn(C(=O)N2CC3CN(Cc4cccc(C(F)(F)F)c4)CC3C2)c1)N1CCN(C2CC2)CC1 (centres unmarked) [Example 8, (4-cyclopropylpiperazin-1-yl)(1-(5-(3-(trifluoromethyl)benzyl)octahydropyrrolo[3,4-c]pyrrole-2-carbonyl)-1H-pyrazol-4-yl)methanone] |  | ≥ 75 |  | ≥ 75
7 | O=C(c1cnn(C(=O)N2CC3CN(Cc4cc(Cl)cc(C(F)(F)F)c4)CC3C2)c1)N1CCCC1 (centres unmarked) [Example 9, (5-(3-chloro-5-(trifluoromethyl)benzyl)hexahydropyrrolo[3,4-c]pyrrol-2(1H)-yl)(4-(pyrrolidine-1-carbonyl)-1H-pyrazol-1-yl)methanone] |  | ≥ 75 |  | ≥ 75
8 | O=C(c1cnn(C(=O)N2CC3CN(Cc4cc(Cl)cc(C(F)(F)F)c4)CC3C2)c1)N1CCOCC1 (centres unmarked) [Example 10, (5-(3-chloro-5-(trifluoromethyl)benzyl)hexahydropyrrolo[3,4-c]pyrrol-2(1H)-yl)(4-(morpholine-4-carbonyl)-1H-pyrazol-1-yl)methanone] |  | ≥ 75 |  | ≥ 75
9 | O=C(c1cnn(C(=O)N2CC3CN(Cc4cc(Cl)cc(C(F)(F)F)c4)CC3C2)c1)N1CCN(C2CC2)CC1 (centres unmarked) [Example 11, (5-(3-chloro-5-(trifluoromethyl)benzyl)hexahydropyrrolo[3,4-c]pyrrol-2(1H)-yl)(4-(4-cyclopropylpiperazine-1-carbonyl)-1H-pyrazol-1-yl)methanone] |  | ≥ 75 |  | ≥ 75
10 | O=C(c1cnn(C(=O)N2CC3CN(Cc4ccc(N5CCOCC5)cc4C(F)(F)F)CC3C2)c1)N1CCCC1 (centres unmarked) [Example 12, (5-(4-morpholino-2-(trifluoromethyl)benzyl)hexahydropyrrolo[3,4-c]pyrrol-2(1H)-yl)(4-(pyrrolidine-1-carbonyl)-1H-pyrazol-1-yl)methanone] |  | ≥ 75 |  | ≥ 75
11 | O=C(c1cnn(C(=O)N2CC3CN(Cc4ccc(N5CCOCC5)cc4C(F)(F)F)CC3C2)c1)N1CCOCC1 (centres unmarked) [Example 13, (4-(morpholine-4-carbonyl)-1H-pyrazol-1-yl)(5-(4-morpholino-2-(trifluoromethyl)benzyl)hexahydropyrrolo[3,4-c]pyrrol-2(1H)-yl)methanone] |  | ≥ 75 |  | ≥ 75
12 | O=C(c1cnn(C(=O)N2CC3CN(Cc4ccc(N5CCOCC5)cc4C(F)(F)F)CC3C2)c1)N1CCN(C2CC2)CC1 (centres unmarked) [Example 14, (4-cyclopropylpiperazin-1-yl)(1-(5-(4-morpholino-2-(trifluoromethyl)benzyl)octahydropyrrolo[3,4-c]pyrrole-2-carbonyl)-1H-pyrazol-4-yl)methanone] | 0.1 to 1 | ≥ 75 | 1 to 10 | ≥ 75
13 | CNC(=O)c1cnn(C(=O)N2CC3CN(Cc4ccc(Cl)cc4)CC3C2)c1 (centres unmarked) [Example 17, 1-(5-(4-chlorobenzyl)octahydropyrrolo[3,4-c]pyrrole-2-carbonyl)-N-methyl-1H-pyrazole-4-carboxamide] | 1 to 10 | 50 to 75 | ≤ 0.1 | ≥ 75
14 | NC(=O)c1cnn(C(=O)N2CC3CN(Cc4ccc(C(F)(F)F)cc4)CC3C2)c1 (centres unmarked) [Example 18, 1-(5-(4-(trifluoromethyl)benzyl)octahydropyrrolo[3,4-c]pyrrole-2-carbonyl)-1H-pyrazole-4-carboxamide] | ≤ 0.1 | ≥ 75 | ≤ 0.1 | ≥ 75

Further lines, results first:

Row | IC50 (MAGL) [µM] | inhibition at 1 µM (MAGL) [%] | IC50 (FAAH) [µM] | inhibition at 1 µM (FAAH) [%] | SMILES
15 | 0.1 to 1 | ≥ 75 | ≤ 0.1 | ≥ 75 | O=C(N1CCC2(CCN(Cc3cccc(Cl)c3)C2)C1)n1cc(Cl)cn1 (single isomer, unassigned) [Example 132, (4-chloro-1H-pyrazol-1-yl)(7-(3-chlorobenzyl)-2,7-diazaspiro[4.4]nonan-2-yl)methanone]
16 | 0.1 to 1 |  | ≤ 0.1 |  | O=C(N1CCC2(CCN(Cc3cccc(Cl)c3)C2)C1)n1cc(Cl)cn1 (single isomer, unassigned) [Example 133, (4-chloro-1H-pyrazole-1-carbonyl)-7-[(3-chlorophenyl)methyl]-2,7-diazaspiro[4.4]nonane]
17 | 0.1 to 1 |  | ≤ 0.1 |  | O=C(N1CCC2(CCN(Cc3ccc(Cl)c(Cl)c3)C2)C1)n1cc(Cl)cn1 (single isomer, unassigned) [Example 139, (4-chloro-1H-pyrazol-1-yl)(7-(3,4-dichlorobenzyl)-2,7-diazaspiro[4.4]nonan-2-yl)methanone]
18 | ≤ 0.1 |  | ≤ 0.1 |  | O=C(N1CCC2(CCN(Cc3ccc(Cl)c(Cl)c3)C2)C1)n1cc(Cl)cn1 (single isomer, unassigned) [Example 140, (4-chloro-1H-pyrazol-1-yl)(7-(3,4-dichlorobenzyl)-2,7-diazaspiro[4.4]nonan-2-yl)methanone]
19 | 1 to 10 | 50 to 75 | 0.1 to 1 | ≥ 75 | O=C(c1cnn(C(=O)N2CC3CN(Cc4cccc(Cl)c4)CC3C2)c1)N1CCCCC1 (centres unmarked) [Example 3, (5-(3-chlorobenzyl)hexahydropyrrolo[3,4-c]pyrrol-2(1H)-yl)(4-(piperidine-1-carbonyl)-1H-pyrazol-1-yl)methanone]
20 | 1 to 10 | 25 to 50 | 0.1 to 1 | ≥ 75 | O=C(c1cnn(C(=O)N2CC3CN(Cc4ccc(Cl)cc4)CC3C2)c1)N1CCCCC1 (centres unmarked) [Example 4, (5-(4-chlorobenzyl)hexahydropyrrolo[3,4-c]pyrrol-2(1H)-yl)(4-(piperidine-1-carbonyl)-1H-pyrazol-1-yl)methanone]
21 |  | ≥ 75 |  | ≥ 75 | O=C(c1cnn(C(=O)N2CC3CN(Cc4cccc(C(F)(F)F)c4)CC3C2)c1)N1CCCC1 (centres unmarked) [Example 15, pyrrolidin-1-yl(1-(5-(3-(trifluoromethyl)benzyl)octahydropyrrolo[3,4-c]pyrrole-2-carbonyl)-1H-pyrazol-4-yl)methanone]
22 | 0.1 to 1 | ≥ 75 | ≤ 0.1 | ≥ 75 | NC(=O)c1cnn(C(=O)N2CC3CN(Cc4ccc(Cl)cc4)CC3C2)c1 (centres unmarked) [Example 16, 1-(5-(4-chlorobenzyl)octahydropyrrolo[3,4-c]pyrrole-2-carbonyl)-1H-pyrazole-4-carboxamide]
